From patent publication US9789096B2, “Methods and compositions for selective and targeted cancer therapy” (Board of Regents of the University of Texas System, priority 2013, dated 2017)
Like-named read-outs stand apart in the source and are kept apart here.

Experiments:
[1] = tested on: H2122; assay: Cell viability dose-response, H2122; format: cell-based, human; conditions: for AC50: NCI-H2122, Table 8
Method: (§1) FIG. 6A. […] Cell viability is plotted vs. compound concentration. Compound was added to cells plated at 15% confluence in 96-well plates in RPMI-1640 media supplemented with 5% Fetal Bovine Serum and 2 mM L-Glutamine. After 4 days of incubation, ATP levels were measured using Cell Titer Glo (Promega). Data are presented as the average of 2 replicates ±SEM.
(§2) Selectivity may be measured by the half maximal inhibitory concentration (IC50), which, as used herein, is a measure of the effectiveness of a compound in killing cells. This quantitative measure indicates how much of a particular compound is needed to kill a particular cell population by half (e.g., as indicated by the amount of ATP). […] The IC50 can be determined by constructing a dose-response curve. The lower the IC50, the higher the potency, and the greater the difference between IC50 values for different cell lines (e.g., sensitive lines vs. insensitive lines, and sensitive lines vs. normal lines) the greater the selectivity. […]
(§3) With this information, we synthesized and tested a series of small molecules derived in conception from the oxalamide and chromone scaffold including N-acyl ureas, as shown in Tables 6-8. Each compound was tested in a 12-point dose-response study starting at 50 micromolar and decreasing in 3-fold increments to sub-nanomolar concentrations, in duplicate. Additionally, one or more additional cell line was tested in the same way.

[2] = tested on: H1819; assay: Cell viability dose-response, H1819; format: cell-based, human; conditions: Homo sapiens; for AC50: NCI-H1819, Table 8, 12-point dose-response starting at 50 micromolar
Method: as §1, §2, §3

[3] = Homo sapiens, NCI-H2122, 12-point dose-response starting at 50 micromolar, 3-fold increments, in duplicate, read-out: toxicity data, H2122
[4] = NCI-H1819, 12-point dose-response starting at 50 micromolar, 3-fold increments, in duplicate, read-out: toxicity data, H1819
[5] = Homo sapiens, 12-point dose-response starting at 50 micromolar
[6] = Homo sapiens, NCI-H2122, Table 9, competitor, read-out: IC50 to H2122 cells

Structure (SMILES)	IC50 [1, 3]	IC50 [2, 4]	other results
COc1ccc(CNC(=O)NCc2ccccc2)cc1 [SW208047-1-A]	≥ 49.5 µM	≥ 49.5 µM	–
O=c1c(Cc2ccccc2C(F)(F)F)coc2cc(OCc3cnn(-c4ccccc4)c3)ccc12 [SW209192-1]	–	–	AC50 [1, 5]: 0.028 µM; AC50 [2]: 49.5 µM
COc1ccc(CCNC(=O)c2ccc3ccccc3c2O)cc1 [SW208124-1-A]	36.2 µM	34.1 µM	–
COc1ccc(CCNC(=O)C(=O)N2CCN(C)CC2)cc1 [SW208048-1-A]	≥ 49.5 µM	≥ 49.5 µM	–
COc1ccc(CCNC(=O)C(=O)Nc2cc(F)ccc2Cl)cc1 [SW206862-1-A]	≥ 49.5 µM	≥ 49.5 µM	–
Cc1ccc(CCNC(=O)C(=O)Nc2ccc(Cl)cc2)cc1 [SW208036-1-A]	≥ 49.5 µM	≥ 49.5 µM	–
COc1ccc(CCNC(=O)C(=O)N2CCc3ccccc3C2)cc1 [SW208060-1-A]	≥ 49.5 µM	≥ 49.5 µM	–
COc1ccc(CCNC(=O)C(=O)Nc2cccc(Br)c2)cc1 [SW027952-2-A]	–	≥ 49.5 µM	IC50 ([1]; 12-point dose-response starting at 50 micromolar, 3-fold increments, in duplicate, read-out: toxicity data, H2122): 3.1 µM
COc1ccc(CCNC(=O)c2cc(O)c3cccc(O)c3n2)cc1 [SW208054-1-A]	46.3 µM	≥ 49.5 µM	–
COc1ccc(CCNC(=O)C(=O)Oc2ccc(Cl)cc2)cc1 [SW208148-1-A]	7.17 µM	≥ 49.5 µM	–
COc1ccc(CCNC(=O)C(=O)N2CCOCC2)cc1 [SW208044-1-A]	≥ 49.5 µM	≥ 49.5 µM	–
COc1ccc(CCNC(=O)C(=O)Nc2cc(F)cc(Cl)c2)cc1 [SW206861-1-A]	≥ 49.5 µM	44.2 µM	–
COc1ccc(CCNC(=O)C(=O)Nc2cccc(OC)c2)cc1 [SW206871-1-A]	0.932 µM	≥ 49.5 µM	–
COc1ccc(CCNC(=O)c2nc3ccccc3[nH]2)cc1 [SW208050-1-A]	≥ 49.5 µM	≥ 49.5 µM	–
CCCOc1ccc2nc(NC(=O)c3ccc(C(=O)c4ccccc4)cc3)sc2c1 [SW208186]	–	–	IC50 ([1]; Homo sapiens, NCI-H2122, Tables 3 and 4, read-out: IC50 (uM) vs indicated non-small cell lung cancer cell line H2122): 0.107 µM; IC50 ([2]; NCI-H1819, Tables 3 and 4, read-out: IC50 (uM) vs indicated non-small cell lung cancer cell line H1819): 13 µM
COc1ccc(CCCNC(=O)C(=O)c2ccccc2)cc1 [SW208152-1-A]	15.2 µM	≥ 49.5 µM	–
COc1ccc(CCNC(=O)C(=O)Nc2cccc(F)c2C)cc1 [SW206882-1-A]	≥ 49.5 µM	≥ 49.5 µM	–
COc1ccc(CCNC(=O)C(=O)Nc2ccc(Cl)c(C#N)c2)cc1 [SW206959-1]	0.398 µM	≥ 49.5 µM	IC50 [1, 6]: 0.182 µM
COc1ccc(CCNC(=O)C(=O)Nc2ccc(Cl)cc2F)cc1 [SW206951-1]	≥ 49.5 µM	≥ 49.5 µM	–
COc1ccc(CCNC(=O)Nc2ccc(Cl)cc2)cc1 [SW208045-1-A]	–	–	IC50 ([1]; Homo sapiens, NCI-H2122, read-out: toxicity data, H2122): ≥ 49.5 µM; IC50 ([2]; NCI-H1819, read-out: toxicity data, H1819): ≥ 49.5 µM
COc1ccc(CCNC(=O)C(=O)Nc2ccc(Br)cn2)cc1 [SW208128-1-A]	0.289 µM	≥ 49.5 µM	–
COc1ccc(CCNC(=O)C(=O)Nc2ccc(F)c(Cl)c2)cc1 [SW206860-1-A]	0.738 µM	≥ 49.5 µM	–
O=c1c(Cc2ccccc2F)coc2cc(OCc3cnn(-c4ccccc4)c3)ccc12 [SW209189-1]	–	–	AC50 [1, 5]: 0.08 µM; AC50 [2]: 49.5 µM
COc1ccc(CCNC(=O)C(=O)Nc2cccnc2C)cc1 [SW208143-1-A]	≥ 49.5 µM	≥ 49.5 µM	–
COc1ccc(CCNC(=O)C(=O)CNc2ccncc2)cc1 [SW208130-1-A]	≥ 49.5 µM	≥ 49.5 µM	–
COc1ccc(CCNC(=O)C(=O)Nc2ccc(Cl)c(Cl)c2)cc1 [SW206960-1]	0.491 µM	≥ 49.5 µM	–
COc1ccc(CCNC(=O)C(=O)c2ccccc2)cc1 [SW208145-1-A]	≥ 49.5 µM	≥ 49.5 µM	–

Structure (SMILES)	IC50 [1, 3]	IC50 [2, 4]	other results
COc1ccc(CCNC(=O)C(=O)Nc2ccc(C(=O)c3ccccc3)cc2)cc1 [SW206966-1]	0.085 µM	≥ 49.5 µM	–
COc1ccc(CCNC(=O)C(=O)O)cc1 [SW208132-1-A]	≥ 49.5 µM	≥ 49.5 µM	–
COc1ccc(CCNC(=O)C(=O)Nc2ccc(C(=O)c3ccc(OC)cc3)cc2)cc1 [SW208009-1-A]	0.081 µM	≥ 49.5 µM	–
COc1ccc(CCNC(=O)NCc2ccccc2)cc1 [SW208043-2-A]	≥ 49.5 µM	≥ 49.5 µM	–
COc1ccc(CCNC(=O)C(=O)Nc2ccc(Cl)c(F)c2)cc1 [SW206952-1]	0.294 µM	≥ 49.5 µM	–
C#CCOc1ccc(CCNC(=O)C(=O)Nc2ccc(C(=O)c3ccccc3)cc2)cc1 [SW207038-2-A]	3.17 µM	≥ 49.5 µM	–
COc1ccc(CCNC(=O)C(=O)Nc2c(Cl)cccc2Cl)cc1 [SW206890-1-A]	≥ 49.5 µM	≥ 49.5 µM	–
COc1ccc(CCNC(=O)C(=O)Nc2cc(Cl)ccc2C)cc1 [SW206866-1-A]	≥ 49.5 µM	≥ 49.5 µM	–
COc1ccc(CCNC(=O)C(=O)Nc2cc(Cl)cc(Cl)c2)cc1 [SW206891-1-A]	≥ 49.5 µM	43.8 µM	–
COc1ccc(CCNC(=O)C(=O)Nc2cc(Cl)c(F)c(Cl)c2)cc1 [SW206889-1-A]	≥ 49.5 µM	≥ 49.5 µM	–
COc1ccc(CCNC(=O)C(=O)Nc2ccc(C)c(F)c2)cc1 [SW206880-1-A]	0.306 µM	≥ 49.5 µM	–
COc1ccc(CCNC(=O)C(=O)NCCc2ccc(OC)cc2)cc1 [SW206963-1]	≥ 49.5 µM	≥ 49.5 µM	–
COc1ccc(CCNC(=O)C(=O)Nc2ccc(Cl)c(C(F)(F)F)c2)cc1 [SW206962-1]	1.4 µM	≥ 49.5 µM	–
COc1ccc(CCNC(=O)C(=O)Nc2ccc(C(=O)c3ccc(O)cc3)cc2)cc1 [SW208141-1-A]	≥ 49.5 µM	≥ 49.5 µM	–
COc1ccc(CCNC(=O)C(=O)Nc2ccc(Cl)c(Br)c2)cc1 [SW206954-1]	0.871 µM	≥ 49.5 µM	–
COc1ccc(CCNC(=O)C(=O)Nc2ccc(Cl)cc2Br)cc1 [SW206953-1]	≥ 49.5 µM	41.7 µM	–
COc1ccc(CCNC(=O)C(=O)Nc2ccc(Br)c(Br)c2)cc1 [SW206955-1]	0.421 µM	≥ 49.5 µM	–
COc1ccc(C(=O)c2ccc(NC(=O)C(=O)NCCc3ccc(O)cc3)cc2)cc1 [SW208117-1-A]	0.031 µM	15.6 µM	IC50 [1, 6]: 0.0244 µM
COc1ccc(CCNC(=O)C(=O)Nc2ccccc2OC)cc1 [SW027954-2-A]	≥ 49.5 µM	≥ 49.5 µM	–
COc1ccc(CCNC(=O)C(=O)Nc2ccc(F)c(Br)c2)cc1 [SW206878-1-A]	0.384 µM	≥ 49.5 µM	–
COc1ccc(CCNC(=O)C(=O)NN2CCN(C)CC2)cc1 [SW208131-1-A]	≥ 49.5 µM	≥ 49.5 µM	–
COc1ccc(CCNC(=O)C(=O)Nc2cccc(F)c2)cc1 [SW2068S9-1-A]	2.26 µM	≥ 49.5 µM	–
COc1ccc(CCNC(=O)c2ccc3ccccc3n2)cc1 [SW208052-1-A]	≥ 49.5 µM	≥ 49.5 µM	–
COc1ccc(CCNC(=O)C(=O)Nc2cncc(Cl)c2)cc1 [SW208139-1-A]	5.88 µM	≥ 49.5 µM	–
COc1ccc(CNC(=O)COc2ccc(Cl)cc2)cc1 [SW208040-1-A]	≥ 49.5 µM	≥ 49.5 µM	–
COc1ccc(CCNC(=O)C(=O)NC2CC2)cc1 [SW208031-1-A]	≥ 49.5 µM	≥ 49.5 µM	–
COc1ccc(CCNC(=O)C(=O)Nc2ccc(Cl)cn2)cc1 [SW208123-1-A]	0.348 µM	46.3 µM	–
